Key:
[1] = PBPK model prediction, dogs
Excerpt: In this study, the PBPK model involving ten tissues (i.e., adipose tissue, brain, heart, kidney, liver, lung, muscle, skin, spleen, and testis (Figure 2; see Appendix A for detailed mathematical descriptions)) was considered to be applicable for the description of IDP-73152 PK in rats, mice, dogs, and humans. Physiological variables were obtained from the literature; they are summarized in Supplementary Table S1.
For the estimation of the volume of the distribution of IDP-73512 in rats, the steady-state volume of distribution (Vss) was calculated using the following equation [30]:(10) Vss=VP+Vrbc×EP+∑VT,i×KP,ss,i, where Vp, Vrbc, and VT,i are the volumes of plasma, red blood cells, and tissues, respectively. The erythrocyte-to-plasma partition coefficient (EP), is calculated by EP=1+(BP−1)/Hematocrit . The KP,ss for each tissue obtained from Equation (8) was applied for Equation (10). For the case of non-eliminating organs, the KP,ss was regarded as the tissue-to-plasma partition coefficient (KP) in PBPK equations (Appendix A). For the case of the liver—i.e., the eliminating organ—the KP,ss (KP,ss,LI) had to be corrected to account for the equilibrium being altered by the elimination. Thus, a PBPK-operative KP for liver (KP,LI) was calculated using the following equation [31]:(11) KP,LI=KP,ss,LI/(1−ER), where ER is the hepatic extraction ratio of the compound (i.e., CLh/(QLI·BP)). In this study, a compartmental absorption and transit (CAT) model consisting of stomach and five intestinal segments was considered for the description of the intestinal absorption kinetics of IDP-73152 in animals and humans. We assumed that the initial compartment denoted the stomach (Equation (12)), and the subsequent three compartments represented the small intestine and two additional compartments for the large intestine (i.e., a total of six compartments, with absorption occurring in the five intestinal compartments) (Equation (13)). The differential equations describing the rate of drug absorption and transit in the gastrointestinal tract can be written as:
For the intestine, viz. i = 1~5:(13) dMi/dt=Kt,i−1×Mi−1−(Kt,i+ka,i)×Mi, where Ms is the amount of drug in the stomach; Mi is the amount of drug in the i-th intestinal segment; Ks, Kt,i, and ka,i are the rate constants of gastric emptying, intestinal transit, and the segmental absorption rate, respectively. In Equation (13) at i = 1, Kt,0 and M0 represent Ks and Ms, respectively. […] The absorption rate constant in the intestinal segments in humans, ka,i,human, was assumed to be identical along the segments and calculated as follows: first, Peff was empirically estimated from the Caco-2 cell permeability (Papp):(14) LogPeff=0.4926×LogPapp−0.1454 […]

[2] = Stability in plasma, rat; assay type: in vitro ADME, rats
Description: The unbound fractions of IDP-73152 in various matrices were measured according to the manufacturer's instructions for the rapid equilibrium dialysis (RED) device (ThermoFisher Scientific, Waltham, MA, USA). Briefly, IDP-73152 was added to the plasma or the microsomal/hepatocyte incubation buffer from various species (i.e., mouse, rat, dog, and human for microsomal incubation; rat for hepatocyte incubation) to obtain final concentrations of the compound at 0.3, 1, and 3 μM. After the membrane insert was placed in the RED plate, the solution containing IDP-73152 was added (400 μL) to the sample chamber, and the dialysis buffer (600 μL) was added to the buffer chamber. The RED plate was sealed with parafilm and then incubated at 37 °C in the orbital shaker (Lab Companion, Daejeon, Korea) at 100 rpm for 5 h. […] The IDP-73152 concentration in the buffer/sample chambers (i.e., CBuffer Chamber and CSample Chamber) was determined by an assay. Thus, the fraction unbound was defined as:(2) % Fraction unbound=(CBuffer Chamber/CSample Chamber)×100% When necessary, the stability of IDP-73152 in the matrix was also determined at 5 h. […] Accordingly, the kinetics of IDP-73152 instability were determined in the rat blood at a final concentration of 0.3 μM. […]

[3] = Unbound fraction in hepatocyte incubation, rat; assay type: in vitro ADME; conditions: hepatocytes (hepatocyte incubation mixture), rats hepatocyte incubation, read-out: fu,hep
Description: The unbound fractions of IDP-73152 in various matrices were measured according to the manufacturer’s instructions for the rapid equilibrium dialysis (RED) device (ThermoFisher Scientific, Waltham, MA, USA). Briefly, IDP-73152 was added to the plasma or the microsomal/hepatocyte incubation buffer from various species (i.e., mouse, rat, dog, and human for microsomal incubation; rat for hepatocyte incubation) to obtain final concentrations of the compound at 0.3, 1, and 3 μM. After the membrane insert was placed in the RED plate, the solution containing IDP-73152 was added (400 µL) to the sample chamber, and the dialysis buffer (600 μL) was added to the buffer chamber. The RED plate was sealed with parafilm and then incubated at 37 °C in the orbital shaker (Lab Companion, Daejeon, Korea) at 100 rpm for 5 h. After a 50 μL aliquot was aspirated from both the sample and buffer chambers, an equal volume of protein-free buffer or blank medium was replaced in the aspirated sample or buffer to render the matrices compositionally identical. The IDP-73152 concentration in the buffer/sample chambers (i.e., CBuffer Chamber and CSample Chamber) was determined by an assay. Thus, the fraction unbound was defined as:(2) % Fraction unbound=(CBuffer Chamber/CSample Chamber)×100%

Compound: CC(C)(C)[C@H](NC(=O)[C@H](CC1CCCC1)CN(O)C=O)C(=O)N1CCC(NCc2cc(F)c(F)cc2F)CC1 [IDP-73152]
- AUC ratio ([1]; intravenous 10 mg/kg): 1.13
- Cmax ratio without the scaling (SF) ([1]; oral): 0.760
- AUC ratio ([1]; oral 20 mg/kg): 1.08
- Cmax ratio ([1]; oral 20 mg/kg): 0.832
- stability in blood and plasma ([2]; rat blood and plasma, preliminary study): unstable
- percentage remaining in plasma at 5 h ([2]; rats plasma, 5 h, 37 °C): 65.3 ± 13.7%
- fraction unbound at 5 h [3]: 0.492 ± 0.068
